Results from US20250011311A1, “AMIDO HETEROAROMATIC COMPOUNDS” (AstraZeneca AB, priority 2022, published 2025).

Experiments:
[1] = molecular target: human CB1 receptor expressed in transfected CHO cells (Homo sapiens (Human), UniProt P21554); experiment: Assay C: CB1 Agonism Assay; type: cell-based; settings: agonist activity, cAMP HTRF, read-out: Assay C: CB1 Hu CHO cAMP TRF Ag CR GMean EC50
Procedure: Assay C: CB1 Agonism Assay
Evaluation of the agonist activity of compounds at the human CB1 receptor expressed in transfected CHO cells, determined by measuring their effects on cAMP modulation using the HTRF detection method.
Thereafter, the adenylyl cyclase activator NKH 477 is added at a final concentration of 3 μM. Following 20 min incubation at 37° C., the cells are lysed and the fluorescence acceptor (D2-labeled cAMP) and fluorescence donor (anti-cAMP antibody labeled with europium cryptate) are added. After 60 min at room temperature, the fluorescence transfer is measured at gex=337 nm and gem=620 and 665 nm using a microplate reader (RUBYSTAR, BMG). The cAMP concentration is determined by dividing the signal measured at 665 nm by that measured at 620 nm (ratio). The results are expressed as a percent of the control response to 30 nM CP 55940. The standard reference agonist is CP 55940, which is tested in each experiment at several concentrations to generate a concentration-response curve from which its EC50 value is calculated.
Bibliographic reference Felder, C. C. et al., (1995), Comparison of the pharmacology and signal transduction of the human cannabinoid CB1 and CB2 receptors, Mol. Pharmacol., 48: 443, which is incorporated herein by reference.

[2] = molecular target: recombinant 17bHSD13 (N2-K300) (Homo sapiens (Human), UniProt Q7Z5P4); experiment: In Vitro 17bHSD13 Enzyme Assay; type: biochemical; settings: 80 nM 17bHSD13, 0.5 mM NAD, 20 μM Estradiol, 2.5 h; estradiol to estrone by LC-MS/MS
Sequence of recombinant 17bHSD13 (N2-K300) (Q7Z5P4 2-300): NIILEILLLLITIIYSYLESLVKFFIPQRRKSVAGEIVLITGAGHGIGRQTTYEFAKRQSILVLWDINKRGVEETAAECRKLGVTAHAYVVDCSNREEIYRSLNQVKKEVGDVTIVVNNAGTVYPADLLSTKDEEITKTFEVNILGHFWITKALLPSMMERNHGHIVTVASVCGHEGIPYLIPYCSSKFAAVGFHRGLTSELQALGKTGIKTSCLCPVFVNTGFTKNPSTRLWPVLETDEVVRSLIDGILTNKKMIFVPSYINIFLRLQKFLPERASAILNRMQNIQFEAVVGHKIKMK
Outline: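 Human 17bHSD13 (N2-K300, 80 nM) with 0.5 mM NAD, 20 μM estradiol and varied compound in 50 mM Tris-Cl pH 7.4, 5 mM EDTA, 0.01% DDM. Estrone/(estrone+estradiol) ratio read by LC-MS/MS (APCI, positive MRM). Inhibition normalised to DMSO and a known-inhibitor control; IC50 from curve fit.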

[3] = molecular target: recombinant 17bHSD4 (M1-N311) (Homo sapiens (Human), UniProt P51659); experiment: In Vitro 17bHSD4 Enzyme Assay; type: biochemical; settings: 40 nM 17bHSD4, 0.125 mM NAD, 15 μM Estradiol, 1.5 h; NADH fluorescence; read-out: 17HSD17b4 Enzyme assay IC50
Sequence of recombinant 17bHSD4 (M1-N311) (P51659 1-311): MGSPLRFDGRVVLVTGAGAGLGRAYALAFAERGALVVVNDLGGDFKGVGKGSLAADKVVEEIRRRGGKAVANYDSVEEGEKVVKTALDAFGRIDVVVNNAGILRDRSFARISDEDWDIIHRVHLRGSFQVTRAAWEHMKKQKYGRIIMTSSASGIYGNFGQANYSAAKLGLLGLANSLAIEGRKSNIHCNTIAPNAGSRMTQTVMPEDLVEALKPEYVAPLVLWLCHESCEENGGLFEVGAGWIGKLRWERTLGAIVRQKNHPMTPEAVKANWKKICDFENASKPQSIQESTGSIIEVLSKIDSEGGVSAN

Sequence of human CB1 receptor expressed in transfected CHO cells (P21554 whole entry): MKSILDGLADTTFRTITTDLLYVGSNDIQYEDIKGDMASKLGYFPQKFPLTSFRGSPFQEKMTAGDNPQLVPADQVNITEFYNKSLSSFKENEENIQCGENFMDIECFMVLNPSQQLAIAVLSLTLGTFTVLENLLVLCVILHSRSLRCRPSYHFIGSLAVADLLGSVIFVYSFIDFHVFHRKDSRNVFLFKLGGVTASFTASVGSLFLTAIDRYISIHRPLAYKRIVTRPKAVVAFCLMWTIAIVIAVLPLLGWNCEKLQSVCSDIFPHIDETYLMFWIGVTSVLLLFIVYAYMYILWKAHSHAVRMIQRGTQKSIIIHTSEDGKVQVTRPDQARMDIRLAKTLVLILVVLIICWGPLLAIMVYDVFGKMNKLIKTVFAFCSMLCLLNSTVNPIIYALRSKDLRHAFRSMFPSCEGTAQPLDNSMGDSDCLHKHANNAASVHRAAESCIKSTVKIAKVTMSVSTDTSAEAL

EC50 [1] | IC50 [2] | IC50 [3] | SMILES
1.9 µM | 0.036 µM | 6.1 µM | COc1ccccc1C1CCN(C(=O)c2noc(-c3cc(F)c(F)c(O)c3F)n2)C1 (stereo not drawn) [Example 4, (3-(2-Methoxyphenyl)pyrrolidin-1-yl)(5-(2,4,5-trifluoro-3-hydroxyphenyl)-1,2,4-oxadiazol-3-yl)methanone]
3.1 µM | 0.069 µM | > 50 µM | O=C(c1noc(-c2ccc(F)c(O)c2)n1)N1CC[C@H](c2ccccc2)C1 [Example 11, (R)-(5-(4-Fluoro-3-hydroxyphenyl)-1,2,4-oxadiazol-3-yl)(3-phenylpyrrolidin-1-yl)methanone]
2.5 µM | 0.057 µM | 30.5 µM | C[C@@H]1C[C@H](C)CN(C(=O)c2noc(-c3cc(F)c(F)c(O)c3F)n2)C1 [Example 37, ((3R,5S)-3,5-Dimethylpiperidin-1-yl)(5-(2,4,5-trifluoro-3-hydroxyphenyl)-1,2,4-oxadiazol-3-yl)methanone]
3.2 µM | 0.187 µM | 19.3 µM | N#Cc1cccc2c1CCN(C(=O)c1noc(-c3cc(F)c(F)c(O)c3F)n1)C2 [Example 66, 2-(5-(2,4,5-Trifluoro-3-hydroxyphenyl)-1,2,4-oxadiazole-3-carbonyl)-1,2,3,4-tetrahydroisoquinoline-5-carbonitrile]
5.7 µM | 0.102 µM | 8.5 µM | N#Cc1ccc2c(c1)CN(C(=O)c1noc(-c3cc(F)c(F)c(O)c3F)n1)CC2 [Example 86, 2-(5-(2,4,5-Trifluoro-3-hydroxyphenyl)-1,2,4-oxadiazole-3-carbonyl)-1,2,3,4-tetrahydroisoquinoline-7-carbonitrile]
 | 0.048 µM | 23.6 µM | O=C(c1noc(-c2cc(F)c(F)c(O)c2F)n1)N1CCCC(OCc2ccccc2)C1 (stereo not drawn) [Example 94, (3-(Benzyloxy)piperidin-1-yl)(5-(2,4,5-trifluoro-3-hydroxyphenyl)-1,2,4-oxadiazol-3-yl)methanone]
 | 0.053 µM | 6.9 µM | O=C(c1noc(-c2cc(F)c(F)c(O)c2F)n1)N1CC[C@H](c2ccc(Cl)cc2)C1 [Example 95, (R)-(3-(4-Chlorophenyl)pyrrolidin-1-yl)(5-(2,4,5-trifluoro-3-hydroxyphenyl)-1,2,4-oxadiazol-3-yl)methanone]
 | 0.063 µM | 9.5 µM | O=C(c1noc(-c2cc(F)c(F)c(O)c2F)n1)N1CC[C@@H](Oc2ccccc2)C1 [Example 98, (R)-(3-Phenoxypyrrolidin-1-yl)(5-(2,4,5-trifluoro-3-hydroxyphenyl)-1,2,4-oxadiazol-3-yl)methanone]
 | 0.197 µM | > 50 µM | O=C(c1noc(-c2cc(F)c(F)c(O)c2F)n1)N1CCO[C@H]2CCC[C@H]21 [Example 112, ((4aR,7aS)-Hexahydrocyclopenta[b][1,4]oxazin-4(4aH)-yl)(5-(2,4,5-trifluoro-3-hydroxyphenyl)-1,2,4-oxadiazol-3-yl)methanone]
0.4 µM | 0.211 µM | 45.3 µM | O=C(c1noc(-c2cc(F)c(F)c(O)c2F)n1)N1CCO[C@@H]2CCC[C@@H]21 [Example 113, ((4aS,7aR)-Hexahydrocyclopenta[b][1,4]oxazin-4(4aH)-yl)(5-(2,4,5-trifluoro-3-hydroxyphenyl)-1,2,4-oxadiazol-3-yl)methanone]
60.5 µM | 0.046 µM | > 50 µM | O=C(c1noc(-c2cc(F)c(F)c(O)c2F)n1)N1CCO[C@@H]2CCC[C@H]21 [Example 114, ((4aR,7aR)-Hexahydrocyclopenta[b][1,4]oxazin-4(4aH)-yl)(5-(2,4,5-trifluoro-3-hydroxyphenyl)-1,2,4-oxadiazol-3-yl)methanone]
> 100 µM | 0.154 µM | > 50 µM | O=C(c1noc(-c2cc(F)c(F)c(O)c2F)n1)N1CCO[C@H]2CCC[C@@H]21 [Example 115, ((4aS,7aS)-Hexahydrocyclopenta[b][1,4]oxazin-4(4aH)-yl)(5-(2,4,5-trifluoro-3-hydroxyphenyl)-1,2,4-oxadiazol-3-yl)methanone]

Second part, the molecule before the results:

SMILES | EC50 [1] | IC50 [2] | IC50 [3]
CC[C@H]1CN(C(=O)c2noc(-c3cc(F)c(F)c(O)c3F)n2)C[C@@H](C)O1 (racemic) [Example 121, rac-((2R,6S)-2-Ethyl-6-methylmorpholino)(5-(2,4,5-trifluoro-3-hydroxyphenyl)-1,2,4-oxadiazol-3-yl)methanone] | > 10 µM | 0.13 µM | > 50 µM
CC(C)[C@H]1CN(C(=O)c2noc(-c3cc(F)c(F)c(O)c3F)n2)C[C@@H](C)O1 (racemic) [Example 122, rac-((2R,6S)-2-isopropyl-6-methylmorpholino)(5-(2,4,5-trifluoro-3-hydroxyphenyl)-1,2,4-oxadiazol-3-yl)methanone] | 22.3 µM | 0.085 µM | > 50 µM
CC1CN(C(=O)c2noc(-c3cc(F)c(F)c(O)c3F)n2)CC2(CCC2)O1 (racemic) [Example 123, (6-Methyl-5-oxa-8-azaspiro[3.5]nonan-8-yl)(5-(2,4,5-trifluoro-3-hydroxyphenyl)-1,2,4-oxadiazol-3-yl)methanone] | > 3 µM | 0.077 µM | 32 µM
C[C@@H]1CN(C(=O)c2ccc(-c3cc(F)c(F)c(O)c3F)s2)C[C@H](C)O1 [Example 3, ((2R,6S)-2,6-Dimethylmorpholino)(5-(2,4,5-trifluoro-3-hydroxyphenyl)thiophen-2-yl)methanone] | > 100 µM | 0.036 µM | 31.5 µM
C[C@@H]1CN(C(=O)c2cc(-c3cc(F)c(F)c(O)c3F)on2)C[C@H](C)O1 [Example 89, ((2R,6S)-2,6-Dimethylmorpholino)(5-(2,4,5-trifluoro-3-hydroxyphenyl)isoxazol-3-yl)methanone] | 78.2 µM | 0.168 µM | > 50 µM
O=C(Nc1ccnn1C1CCCCC1)c1cc(-c2ccc(F)c(O)c2)on1 [Example 99, N-(1-Cyclohexyl-1H-pyrazol-5-yl)-5-(4-fluoro-3-hydroxyphenyl)isoxazole-3-carboxamide] |  | 0.114 µM | 41.8 µM
C[C@@H]1CN(C(=O)c2noc(-c3c(F)c(O)c(F)c(F)c3I)n2)C[C@H](C)O1 [Example 108, ((2S,6R)-2,6-Dimethylmorpholino)(5-(2,4,5-trifluoro-3-hydroxy-6-iodophenyl)-1,2,4-oxadiazol-3-yl)methanone] |  | 0.08 µM | > 50 µM
N#Cc1cccc2c1CCN(C(=O)c1noc(-c3c(F)c(O)c(F)c(F)c3I)n1)C2 [Example 109, 2-(5-(2,4,5-Trifluoro-3-hydroxy-6-iodophenyl)-1,2,4-oxadiazole-3-carbonyl)-1,2,3,4-tetrahydroisoquinoline-5-carbonitrile] |  | 0.046 µM | 11.7 µM
C[C@@H]1C[C@H](C)CN(C(=O)c2nc(-c3cc(F)c(F)c(O)c3F)no2)C1 [Example 111, ((3R,5S)-3,5-Dimethylpiperidin-1-yl)(3-(2,4,5-trifluoro-3-hydroxyphenyl)-1,2,4-oxadiazol-5-yl)methanone] | 3.4 µM | 0.093 µM | > 50 µM
CC1CN(C(=O)c2noc(-c3cc(F)c(F)c(O)c3F)n2)CC(C)(C)O1 (stereo not drawn) [Example 117, (5-(2,4,5-Trifluoro-3-hydroxyphenyl)-1,2,4-oxadiazol-3-yl)(2,2,6-trimethylmorpholino)methanone] | 0.5 µM | 0.234 µM | 39.9 µM
O=C(c1noc(-c2cc(F)c(F)c(O)c2F)n1)N1CCOC2(CC2)C1 [Example 118, (4-Oxa-7-azaspiro[2.5]octan-7-yl)(5-(2,4,5-trifluoro-3-hydroxyphenyl)-1,2,4-oxadiazol-3-yl)methanone] |  | 1.08 µM | > 50 µM
C[C@@H]1CN(C(=O)c2noc(-c3cc(F)c(F)c(O)c3F)n2)C[C@H](C)N1 [Example 119, ((3R,5S)-3,5-Dimethylpiperazin-1-yl)(5-(2,4,5-trifluoro-3-hydroxyphenyl)-1,2,4-oxadiazol-3-yl)methanone] |  | 1.74 µM | > 50 µM
C[C@@H]1CN(C(=O)c2cnc(-c3cc(F)c(F)c(O)c3F)s2)C[C@H](C)O1 [Example 120, ((2R,6S)-2,6-Dimethylmorpholino)(2-(2,4,5-trifluoro-3-hydroxyphenyl)thiazol-5-yl)methanone] | 8.5 µM | 0.044 µM | > 50 µM
